Measurements taken from ChEMBL document CHEMBL2016499, “Monoenomycin: A Simplified Trienomycin A Analogue that Manifests Anticancer Activity” (ACS Med Chem Lett, 2011).

What was measured:
[1] = tested on: MCF7; assay: Cytotoxicity against human MCF7 cells at 72 hrs by MTS assay; format: functional, cell-based; conditions: MCF7, 72 h
[2] = tested on: HeLa; assay: Cytotoxicity against human HeLa cells at 72 hrs by MTS assay; format: functional, cell-based

| Structure (SMILES) | IC50 [1] | IC50 [2] |
| --- | --- | --- |
| COc1cc2cc(c1)NC(=O)CCCCCCC=CC[C@H](OC(=O)[C@@H](C)NC(C)=O)CC/C(C)=C/CC2 (mixture of isomers) | 1700 nM | 2500 nM |
| CO[C@H]1/C=C/C=C/C=C/C[C@H](OC(=O)[C@@H](C)NC(=O)C2CCCCC2)[C@H](C)[C@@H](O)/C(C)=C\CCc2cc(O)cc(c2)NC(=O)C1 [TRIENOMYCIN A] | – | 128 nM |
| COc1cc2cc(c1)NC(=O)CCCCCCC=CC[C@H](OC(=O)[C@H](NC(=O)C1CCCCC1)C(C)C)CC/C(C)=C/CC2 (mixture of isomers) | 1000 nM | 9100 nM |
| COC1=C2C[C@@H](C)C[C@H](OC)[C@H](O)[C@@H](C)/C=C(\C)[C@H](OC(N)=O)[C@@H](OC)/C=C\C=C(/C)C(=O)NC(=CC1=O)C2=O [GELDANAMYCIN] | 53 nM | > 5000 nM |
| COc1cc2cc(c1)NC(=O)CCCCCCC=CC[C@H](OC(=O)[C@@H](C)NC(=O)C1CCCCC1)CC/C(C)=C/CC2 (mixture of isomers) | 530 nM | 470 nM |
| COc1cc2cc(c1)NC(=O)CCCCCCC=CC[C@H](OC(=O)[C@@H](C)NC(=O)C1CCCC1)CC/C(C)=C/CC2 (mixture of isomers) | 720 nM | 1600 nM |
| COc1cc2cc(c1)NC(=O)CCCCCCC=CC[C@H](OC(=O)[C@H](C)NC(=O)C1CCCCC1)CC/C(C)=C/CC2 (mixture of isomers) | 1900 nM | 1700 nM |
| COc1cc2cc(c1)NC(=O)CCCCCCC=CC[C@H](OC(=O)CNC(=O)C1CCCCC1)CC/C(C)=C/CC2 (mixture of isomers) | 12000 nM | 13000 nM |
| COc1cc2cc(c1)NC(=O)CCCCCCC=CC[C@H](OC(=O)[C@@H](C)NC(=O)C1CCCCC1)CC/C(C)=C\CC2 (mixture of isomers) | > 100000 nM | > 100000 nM |
| COc1cc2cc(c1)NC(=O)CCCCCCC=CC[C@H](OC(=O)[C@@H](Cc1ccccc1)NC(=O)C1CCCCC1)CC/C(C)=C/CC2 (mixture of isomers) | 5100 nM | 4600 nM |
| COc1cc2cc(c1)NC(=O)CCCCCCC=CC[C@H](OC(=O)[C@@H](CC(C)C)NC(=O)C1CCCCC1)CC/C(C)=C/CC2 (mixture of isomers) | > 100000 nM | > 100000 nM |
